The results in this text go back to US4122179A, “Acid addition salts of vincamine and apovincamine” (priority 1976, dated 1978).

What is called LD50 is the dose at which mortality reaches 50%. High values mean lower toxicity, low ones greater toxicity.

Counter-ions that a name gives are not always drawn.

Tested on in the first data set: not listed separately
Briefly: LD50 / acute toxicity, intraperitoneal route. Particulars: i.p. In kind it is in vivo.
As for `CC[C@@]12C=C(C(=O)OC)n3c4c(c5ccccc53)CCN(CCC1)[C@H]42` [Example 18.b], the LD50 is on record as 1500 mg/kg.
As for `CC[C@@]12C=C(C(=O)OC)n3c4c(c5ccccc53)CCN(CCC1)[C@H]42` [Example 28.b, Apovincamine salicylate], the LD50 is recorded as 750 mg/kg.
Turning to `CC[C@]12CCCN3CCc4c(n(c5ccccc45)[C@@](O)(C(=O)OC)C1)[C@@H]32` [Example 20.a, Vincamine theophylline-7-acetate], the LD50 was found to be 700 mg/kg.
In the case of `CC[C@@]12C=C(C(=O)OC)n3c4c(c5ccccc53)CCN(CCC1)[C@H]42` [Example 16.b, Apovincamine acetylsalicylate], the LD50 came out at 750 mg/kg.
In turn, “Apovincamine-pectin (2:1 adduct) [Example 31.b]” showed an LD50 of 900 mg/kg.
As for `CC[C@]12CCCN3CCc4c(n(c5ccccc45)[C@@](O)(C(=O)OC)C1)[C@@H]32` [Example 26.a], the median lethal dose (LD50) is 1000 mg/kg.
Regarding `CC[C@@]12C=C(C(=O)OC)n3c4c(c5ccccc53)CCN(CCC1)[C@H]42` [Example 7.b, Apovincamine 3,5-dihydroxybenzoate], the LD50 came to 750 mg/kg.
On to `CC[C@]12CCCN3CCc4c(n(c5ccccc45)[C@@](O)(C(=O)OC)C1)[C@@H]32` [Example 4.a, Vincamine glucose-1-phosphate, acid salt], for which the LD50 was 700 mg/kg.
In turn, `CC[C@@]12C=C(C(=O)OC)n3c4c(c5ccccc53)CCN(CCC1)[C@H]42` [Example 9.b, Apovincamine clofibrate] showed an LD50 of 800 mg/kg.
As for `CC[C@]12CCCN3CCc4c(n(c5ccccc45)[C@@](O)(C(=O)OC)C1)[C@@H]32` [Example 16.a, Vincamine acetylsalicylate], the LD50 is given as 900 mg/kg.

The same data set, now with this note: i.p.; Gleason class in words, classes not defined.
For the compound `CC[C@@]12C=C(C(=O)OC)n3c4c(c5ccccc53)CCN(CCC1)[C@H]42` [Example 18.b], the “Toxicity (Gleason)” value is recorded as “light”.
Turning to `CC[C@@]12C=C(C(=O)OC)n3c4c(c5ccccc53)CCN(CCC1)[C@H]42` [Example 28.b, Apovincamine salicylate], the “Toxicity (Gleason)” value was “modest”.
Same read-out and setting: the same measure for `CC[C@]12CCCN3CCc4c(n(c5ccccc45)[C@@](O)(C(=O)OC)C1)[C@@H]32` [Example 20.a, Vincamine theophylline-7-acetate]: “modest”.
Consider `CC[C@@]12C=C(C(=O)OC)n3c4c(c5ccccc53)CCN(CCC1)[C@H]42` [Example 16.b, Apovincamine acetylsalicylate], for which the “Toxicity (Gleason)” value is “modest”.
On the same count and under the same terms, the entry for “Apovincamine-pectin (2:1 adduct) [Example 31.b]” is “light”; for `CC[C@]12CCCN3CCc4c(n(c5ccccc45)[C@@](O)(C(=O)OC)C1)[C@@H]32` [Example 26.a] it is “modest”.
Regarding `CC[C@@]12C=C(C(=O)OC)n3c4c(c5ccccc53)CCN(CCC1)[C@H]42` [Example 7.b, Apovincamine 3,5-dihydroxybenzoate], the “Toxicity (Gleason)” value is reported as “modest”.
As for `CC[C@]12CCCN3CCc4c(n(c5ccccc45)[C@@](O)(C(=O)OC)C1)[C@@H]32` [Example 4.a, Vincamine glucose-1-phosphate, acid salt], the “Toxicity (Gleason)” value is “modest”.
Consider `CC[C@@]12C=C(C(=O)OC)n3c4c(c5ccccc53)CCN(CCC1)[C@H]42` [Example 9.b, Apovincamine clofibrate], for which the “Toxicity (Gleason)” value is “light”.
Same read-out and setting: the same measure for `CC[C@]12CCCN3CCc4c(n(c5ccccc45)[C@@](O)(C(=O)OC)C1)[C@@H]32` [Example 16.a, Vincamine acetylsalicylate]: “modest”.

Tested on in the next data set: not listed separately
Briefly: Hematic levels at different times after oral administration (absorption). In kind it is in vivo, Wistar rat. Particulars: 100 mg/kg expressed as vincamine/apovincamine, 5% carboxymethyl cellulose suspension. The protocol: (§1) For the compounds of the present invention a number of pharmacological and pharmacokinetic tests have been carried out. […] As regards the pharmacological and pharmacodynamic activity, it has been studied on the percent variations of the hematic flow, as recorded at the vertebral arteria in the dog after administration of the tested compounds. As regards the pharmacokinetic tests, the compounds were administered per oral route to the Wistar rat, and the hematic levels at different times from the administration were measured.
For the evaluation of the absorption, all the compounds have been orally administered at the dosage of 100 mg/kg, expressed as vincamine and apovincamine, in form of a suspension in a 5% carboxymethyl cellulose solution.
The absorption was determined by evaulating the hematic levels at the following times (minutes) : 0, 30, 120, 240, 480, 10 hours and 12 hours, in order also to assess the time from the administration (max conc.time) the maximum absorption occurred.
The vincamine and apovincamine concentrations were assessed by chromatographic method.
For the evaluation of the prolonged action of the salts and of the adducts of vincamine and apovincamine the following criterium was adopted; as derivatives having a long-acting effect, there are considered those which, 120 minutes after the administration, show hematic levels higher than those obtained with vincamine and apovincamine.
“Apovincamine-pectin (2:1 adduct) [Example 31.b]” displayed a Max. conc. time of 480 min.

Still in this data set, the particulars now being: 100 mg/kg expressed as vincamine/apovincamine, 5% carboxymethyl cellulose suspension, 100 mg/kg.
Compound `CC[C@@]12C=C(C(=O)OC)n3c4c(c5ccccc53)CCN(CCC1)[C@H]42` [Example 18.b] showed a Max. conc. time of 120 min.
The same measure, in the same setting: the same measure for `CC[C@@]12C=C(C(=O)OC)n3c4c(c5ccccc53)CCN(CCC1)[C@H]42` [Example 28.b, Apovincamine salicylate]: 240 min; for `CC[C@]12CCCN3CCc4c(n(c5ccccc45)[C@@](O)(C(=O)OC)C1)[C@@H]32` [Example 20.a, Vincamine theophylline-7-acetate]: 60 min.
Compound `CC[C@@]12C=C(C(=O)OC)n3c4c(c5ccccc53)CCN(CCC1)[C@H]42` [Example 16.b, Apovincamine acetylsalicylate] registered a Max. conc. time of 60 min.
`CC[C@]12CCCN3CCc4c(n(c5ccccc45)[C@@](O)(C(=O)OC)C1)[C@@H]32` [Example 26.a]: the Max. conc. time was determined as 120 min.
`CC[C@@]12C=C(C(=O)OC)n3c4c(c5ccccc53)CCN(CCC1)[C@H]42` [Example 7.b, Apovincamine 3,5-dihydroxybenzoate] had a Max. conc. time of 240 min.
Compound `CC[C@]12CCCN3CCc4c(n(c5ccccc45)[C@@](O)(C(=O)OC)C1)[C@@H]32` [Example 4.a, Vincamine glucose-1-phosphate, acid salt] gave a Max. conc. time of 240 min.
With `CC[C@@]12C=C(C(=O)OC)n3c4c(c5ccccc53)CCN(CCC1)[C@H]42` [Example 9.b, Apovincamine clofibrate], the Max. conc. time turned out to be 480 min.
For `CC[C@]12CCCN3CCc4c(n(c5ccccc45)[C@@](O)(C(=O)OC)C1)[C@@H]32` [Example 16.a, Vincamine acetylsalicylate], the Max. conc. time came out at 20 min.

The test system of another data set is vertebral arteria. Briefly: Cerebral vasodilating activity: hematic flow at the vertebral arteria after i.v. administration. In kind it is in vivo. Particulars: i.v. (femoral vein), 5 mg/kg of vincamine/apovincamine, anesthetized dog, 4 animals per compound. The protocol: as §1
The cerebral vasodilating activity was studied in the anestetized dog, by measuring, by means of Statham periarterial electromagnetic flowmeters, the hematic flow at the level of the […] which, in such animal species, constitutes the greatest blood supply to the brain.
The resuls are reported in the TABLE 2 (last column) as the percent variations of the flow measured at the level of the ledt vertebral arteria after the i.v. administration of the several compounds to be tested to groups of 4 animals for each compound. The results also confirm that the compounds of the invention are all endowed with a vasodilating activity at the level of the cerebral circulus, such an action being, for some compounds, much more remarkable than that of vincamine and apovincamine.
Regarding “Apovincamine-pectin (2:1 adduct) [Example 31.b]”, the “% increase (percent variation of hematic flow, left vertebral arteria)” value is given as 28.2%.

The same data set, now with this note: i.v. (femoral vein), 5 mg/kg of vincamine/apovincamine, anesthetized dog, 4 animals per compound; 5 mg/kg.
Consider `CC[C@@]12C=C(C(=O)OC)n3c4c(c5ccccc53)CCN(CCC1)[C@H]42` [Example 18.b], for which the “% increase (percent variation of hematic flow, left vertebral arteria)” value is 33.1%.
`CC[C@@]12C=C(C(=O)OC)n3c4c(c5ccccc53)CCN(CCC1)[C@H]42` [Example 28.b, Apovincamine salicylate]: the “% increase (percent variation of hematic flow, left vertebral arteria)” value was determined as 26.7%.
For the compound `CC[C@]12CCCN3CCc4c(n(c5ccccc45)[C@@](O)(C(=O)OC)C1)[C@@H]32` [Example 20.a, Vincamine theophylline-7-acetate], the “% increase (percent variation of hematic flow, left vertebral arteria)” value was 24.5%.
With `CC[C@@]12C=C(C(=O)OC)n3c4c(c5ccccc53)CCN(CCC1)[C@H]42` [Example 16.b, Apovincamine acetylsalicylate], the “% increase (percent variation of hematic flow, left vertebral arteria)” value came out at 40.1%.
Still for that read-out and setting: the figure for `CC[C@]12CCCN3CCc4c(n(c5ccccc45)[C@@](O)(C(=O)OC)C1)[C@@H]32` [Example 26.a] is 23.8%.
On to `CC[C@@]12C=C(C(=O)OC)n3c4c(c5ccccc53)CCN(CCC1)[C@H]42` [Example 7.b, Apovincamine 3,5-dihydroxybenzoate], for which the “% increase (percent variation of hematic flow, left vertebral arteria)” value came out at 26.0%.
As for `CC[C@]12CCCN3CCc4c(n(c5ccccc45)[C@@](O)(C(=O)OC)C1)[C@@H]32` [Example 4.a, Vincamine glucose-1-phosphate, acid salt], the “% increase (percent variation of hematic flow, left vertebral arteria)” value stood at 26.6%.
The same measure, in the same setting: the same measure for `CC[C@@]12C=C(C(=O)OC)n3c4c(c5ccccc53)CCN(CCC1)[C@H]42` [Example 9.b, Apovincamine clofibrate]: 28.3%; for `CC[C@]12CCCN3CCc4c(n(c5ccccc45)[C@@](O)(C(=O)OC)C1)[C@@H]32` [Example 16.a, Vincamine acetylsalicylate]: 31.7%.

Tested on in the next data set: not listed separately
The data set is described as follows: Solubility. Format: physicochemical. Particulars: alcohol (ethyl alcohol); qualitative.
As for `CC[C@@]12C=C(C(=O)OC)n3c4c(c5ccccc53)CCN(CCC1)[C@H]42` [Example 18.b], the solubility in alcohol entry is given as “insoluble”.
As for `CC[C@@]12C=C(C(=O)OC)n3c4c(c5ccccc53)CCN(CCC1)[C@H]42` [Example 28.b, Apovincamine salicylate], the solubility in alcohol result was “soluble”.
As for `CC[C@]12CCCN3CCc4c(n(c5ccccc45)[C@@](O)(C(=O)OC)C1)[C@@H]32` [Example 20.a, Vincamine theophylline-7-acetate], the solubility in alcohol entry is listed as “soluble”.
Consider `CC[C@@]12C=C(C(=O)OC)n3c4c(c5ccccc53)CCN(CCC1)[C@H]42` [Example 16.b, Apovincamine acetylsalicylate], for which the solubility in alcohol entry was “soluble”.
“Apovincamine-pectin (2:1 adduct) [Example 31.b]”: the solubility in alcohol entry is reported as “poorly soluble”.
As to `CC[C@@]12C=C(C(=O)OC)n3c4c(c5ccccc53)CCN(CCC1)[C@H]42` [Example 7.b, Apovincamine 3,5-dihydroxybenzoate], the solubility in alcohol entry is reported as “soluble”.
Same read-out and setting: the same measure for `CC[C@@]12C=C(C(=O)OC)n3c4c(c5ccccc53)CCN(CCC1)[C@H]42` [Example 9.b, Apovincamine clofibrate]: “soluble”.

Still in this data set, the particulars now being: common organic solvents; qualitative.
Take `CC[C@]12CCCN3CCc4c(n(c5ccccc45)[C@@](O)(C(=O)OC)C1)[C@@H]32` [Example 20.a, Vincamine theophylline-7-acetate]: the “solubility in the common (organic) solvents” value (shortened to “solubility in the common”) was “insoluble”.
As for `CC[C@]12CCCN3CCc4c(n(c5ccccc45)[C@@](O)(C(=O)OC)C1)[C@@H]32` [Example 26.a], the “solubility in the common” value is given as “insoluble”.
Turning to `CC[C@]12CCCN3CCc4c(n(c5ccccc45)[C@@](O)(C(=O)OC)C1)[C@@H]32` [Example 16.a, Vincamine acetylsalicylate], the “solubility in the common” value was “poorly soluble”.

Still in this data set, the particulars now being: water; qualitative.
On to `CC[C@@]12C=C(C(=O)OC)n3c4c(c5ccccc53)CCN(CCC1)[C@H]42` [Example 18.b], for which the solubility in water entry was “insoluble”.
The same measure, in the same setting: the entry for `CC[C@]12CCCN3CCc4c(n(c5ccccc45)[C@@](O)(C(=O)OC)C1)[C@@H]32` [Example 20.a, Vincamine theophylline-7-acetate] is “insoluble”.
The same measure, in the same setting: the same measure for `CC[C@@]12C=C(C(=O)OC)n3c4c(c5ccccc53)CCN(CCC1)[C@H]42` [Example 16.b, Apovincamine acetylsalicylate]: “very little soluble”.
Same read-out and setting: the same measure for “Apovincamine-pectin (2:1 adduct) [Example 31.b]”: “insoluble”.
In the case of `CC[C@]12CCCN3CCc4c(n(c5ccccc45)[C@@](O)(C(=O)OC)C1)[C@@H]32` [Example 26.a], the solubility in water result is “insoluble”.
Consider `CC[C@@]12C=C(C(=O)OC)n3c4c(c5ccccc53)CCN(CCC1)[C@H]42` [Example 7.b, Apovincamine 3,5-dihydroxybenzoate], for which the solubility in water result is given as “insoluble”.
`CC[C@]12CCCN3CCc4c(n(c5ccccc45)[C@@](O)(C(=O)OC)C1)[C@@H]32` [Example 4.a, Vincamine glucose-1-phosphate, acid salt]: the solubility in water entry is “soluble”.
On to `CC[C@@]12C=C(C(=O)OC)n3c4c(c5ccccc53)CCN(CCC1)[C@H]42` [Example 9.b, Apovincamine clofibrate], for which the solubility in water entry is given as “insoluble”.
